Tests used:
[1] = test system: SMN2 minigene mRNA (SMN2-A minigene) in HEK293H cells; experiment: SMN2 minigene mRNA splicing RT-qPCR assay in cultured cells; type: cell-based, human; settings: Homo sapiens, HEK293-H; concentration increasing full length SMN2 mRNA 1.5-fold relative to vehicle-treated cells; HEK293H cells with SMN2-A minigene, 24 hours, 7-point concentration data; read-out: EC1.5x for production of full length SMN2 mRNA
Method in brief: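 EC1.5× = concentration raising full-length SMN2 minigene mRNA 1.5-fold over vehicle, from 7-point curves in duplicate. Stably transfected HEK293H cells exposed 24 h at 37 °C; lysates assayed by multiplex RT-qPCR, minigene FL signal normalized to GAPDH via modified ΔΔCt.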

[2] = test system: Smn protein in SMA patient fibroblast cells (GM03813); experiment: Smn protein assay in cultured cells (SMN HTRF); type: cell-based, human; settings: SMA patient fibroblast cells, 48 hours; for EC1.5x for Smn protein expression: 7-point concentration curve, SMN HTRF, concentration producing 1.5 times Smn protein vs DMSO vehicle control; for maximum fold (Fold) increase of Smn protein: 7-point concentration data, fold relative to vehicle control
Method in brief: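 Smn protein quantified by HTRF with anti-SMN d2/kryptate pair, 665/620 nm ratio blank-corrected, in RIPA lysates of GM03813 fibroblasts after 48 h compound exposure (7 concentrations, 3.16-fold steps, triplicates). Values: concentration producing 1.5× vehicle Smn level, and maximal fold increase.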

`CN1CCCN(c2ccc3nc(-c4ccc5c(cnn5C)c4)cc(=O)n3c2)CC1` [Compound 492, 7-(4-methyl-1,4-diazepan-1-yl)-2-(1-methyl-1H-indazol-5-yl)-4H-pyrido[1,2-a]pyrimidin-4-one] was tested, and the EC (1.5-fold increase) [1] was 0.3 to 1 µM, the “EC1.5x for Smn protein expression” value [2] was “** (an EC1.5× between >1 μM and ≤3 μM is indicated by two stars (**))” and the “maximum fold (Fold) increase of Smn protein” value (from here on “maximum fold (Fold) increase”) [2] was “**** (a fold increase between >1.5 and ≤1.65 is indicated by four stars (****))”.
In the case of `Cc1cn2nc(-c3cc(=O)n4cc(C5CCNCC5)ncc4n3)cc2c(C)n1` [Compound 502, 2-(4,6-dimethylpyrazolo[1,5-a]pyrazin-2-yl)-7-(piperidin-4-yl)-4H-pyrazino[1,2-a]pyrimidin-4-one], the EC (1.5-fold increase) [1] is reported as less than 0.1 µM, the “EC1.5x for Smn protein expression” value [2] is reported as “**** (an EC1.5x≤0.3 μM is indicated by four stars (****))” and the “maximum fold (Fold) increase” value [2] is reported as “***** (a fold increase >1.65 is indicated by five stars (*****))”.
With `CCN1CCC(c2cn3c(=O)cc(-c4cc5c(C)nc(C)cn5n4)nc3cn2)CC1` [Compound 504, 2-(4,6-dimethylpyrazolo[1,5-a]pyrazin-2-yl)-7-(1-ethylpiperidin-4-yl)-4H-pyrazino[1,2-a]pyrimidin-4-one] the EC (1.5-fold increase) [1] was less than 0.1 µM, the “EC1.5x for Smn protein expression” value [2] was “**** (an EC1.5x≤0.3 μM is indicated by four stars (****))” and the “maximum fold (Fold) increase” value [2] was “***** (a fold increase >1.65 is indicated by five stars (*****))”.
`CCN1CC=C(c2cn3c(=O)cc(-c4ccc5c(cnn5C)c4)nc3cn2)CC1` [Compound 507, 7-(1-ethyl-1,2,3,6-tetrahydropyridin-4-yl)-2-(1-methyl-1H-indazol-5-yl)-4H-pyrazino[1,2-a]pyrimidin-4-one] was tested, and the EC (1.5-fold increase) [1] was 0.1 to 0.3 µM, the “EC1.5x for Smn protein expression” value [2] was “*** (an EC1.5× between >0.3 μM and ≤1 μM is indicated by three stars (***))” and the “maximum fold (Fold) increase” value [2] was “**** (a fold increase between >1.5 and ≤1.65 is indicated by four stars (****))”.
In the case of `CCN1CCN(c2cc(C)c3nc(-c4cc5c(C)nc(C)cn5n4)cc(=O)n3c2)CC1` [Compound 508, 2-(4,6-dimethylpyrazolo[1,5-a]pyrazin-2-yl)-7-(4-ethylpiperazin-1-yl)-9-methyl-4H-pyrido[1,2-a]pyrimidin-4-one], the EC (1.5-fold increase) [1] is reported as less than 0.1 µM, the “EC1.5x for Smn protein expression” value [2] is reported as “*** (an EC1.5× between >0.3 μM and ≤1 μM is indicated by three stars (***))” and the “maximum fold (Fold) increase” value [2] is reported as “**** (a fold increase between >1.5 and ≤1.65 is indicated by four stars (****))”.
With `Cc1cn2nc(-c3cc(=O)n4nc(C5CCNCC5)ccc4n3)cc2c(C)n1` [Compound 512, 2-(4,6-dimethylpyrazolo[1,5-a]pyrazin-2-yl)-7-(piperidin-4-yl)-4H-pyrimido[1,2-b]pyridazin-4-one] the EC (1.5-fold increase) [1] was less than 0.1 µM, the “EC1.5x for Smn protein expression” value [2] was “**** (an EC1.5x≤0.3 μM is indicated by four stars (****))” and the “maximum fold (Fold) increase” value [2] was “***** (a fold increase >1.65 is indicated by five stars (*****))”.
With `Cc1cn2nc(-c3cc(=O)n4cc(N5CCCN(C)CC5)cc(C)c4n3)cc2c(C)n1` [Compound 520, 2-(4,6-dimethylpyrazolo[1,5-a]pyrazin-2-yl)-9-methyl-7-(4-methyl-1,4-diazepan-1-yl)-4H-pyrido[1,2-a]pyrimidin-4-one] the EC (1.5-fold increase) [1] was 0.1 to 0.3 µM, the “EC1.5x for Smn protein expression” value [2] was “**** (an EC1.5x≤0.3 μM is indicated by four stars (****))” and the “maximum fold (Fold) increase” value [2] was “**** (a fold increase between >1.5 and ≤1.65 is indicated by four stars (****))”.
For `Cn1cc2cc(-c3cc(=O)n4nc(C5CCNCC5)ccc4n3)ccc2n1` [Compound 521, 2-(2-methyl-2H-indazol-5-yl)-7-(piperidin-4-yl)-4H-pyrimido[1,2-b]pyridazin-4-one], the EC (1.5-fold increase) [1] was 0.1 to 0.3 µM, the “EC1.5x for Smn protein expression” value [2] was “**** (an EC1.5x≤0.3 μM is indicated by four stars (****))” and the “maximum fold (Fold) increase” value [2] was “***** (a fold increase >1.65 is indicated by five stars (*****))”.
In the case of `Cc1cn2nc(-c3cc(=O)n4cc(N5CCNC(C)(C)C5)cc(C)c4n3)cc2c(C)n1` [Compound 544, 7-(3,3-dimethylpiperazin-1-yl)-2-(4,6-dimethylpyrazolo[1,5-a]pyrazin-2-yl)-9-methyl-4H-pyrido[1,2-a]pyrimidin-4-one], the EC (1.5-fold increase) [1] is reported as less than 0.1 µM, the “EC1.5x for Smn protein expression” value [2] is reported as “*** (an EC1.5× between >0.3 μM and ≤1 μM is indicated by three stars (***))” and the “maximum fold (Fold) increase” value [2] is reported as “**** (a fold increase between >1.5 and ≤1.65 is indicated by four stars (****))”.
With `Cc1cn2cc(-c3cc(=O)n4cc(C5CCNCC5)ncc4n3)ccc2n1` [Compound 585, 2-(2-methylimidazo[1,2-a]pyridin-6-yl)-7-(piperidin-4-yl)-4H-pyrazino[1,2-a]pyrimidin-4-one] the EC (1.5-fold increase) [1] was less than 0.1 µM, the “EC1.5x for Smn protein expression” value [2] was “**** (an EC1.5x≤0.3 μM is indicated by four stars (****))” and the “maximum fold (Fold) increase” value [2] was “***** (a fold increase >1.65 is indicated by five stars (*****))”.
For `Cc1cn2cc(-c3cc(=O)n4cc(C5CCNCC5)ncc4n3)cc(Cl)c2n1` [Compound 587, 2-(8-chloro-2-methylimidazo[1,2-a]pyridin-6-yl)-7-(piperidin-4-yl)-4H-pyrazino[1,2-a]pyrimidin-4-one], the EC (1.5-fold increase) [1] was less than 0.1 µM, the “EC1.5x for Smn protein expression” value [2] was “**** (an EC1.5x≤0.3 μM is indicated by four stars (****))” and the “maximum fold (Fold) increase” value [2] was “**** (a fold increase between >1.5 and ≤1.65 is indicated by four stars (****))”.
For `Cc1cn2cc(-c3cc(=O)n4cc(C5CCNCC5)ncc4n3)cc(C)c2n1` [Compound 588, 2-(2,8-dimethylimidazo[1,2-a]pyridin-6-yl)-7-(piperidin-4-yl)-4H-pyrazino[1,2-a]pyrimidin-4-one], the EC (1.5-fold increase) [1] was less than 0.1 µM, the “EC1.5x for Smn protein expression” value [2] was “**** (an EC1.5x≤0.3 μM is indicated by four stars (****))” and the “maximum fold (Fold) increase” value [2] was “***** (a fold increase >1.65 is indicated by five stars (*****))”.
In the case of `CN1CCN(c2cn3c(=O)cc(-c4ccc5nn(C)cc5c4)nc3cn2)CC1` [Compound 589, 2-(2-methyl-2H-indazol-5-yl)-7-(4-methylpiperazin-1-yl)-4H-pyrazino[1,2-a]pyrimidin-4-one], the EC (1.5-fold increase) [1] is reported as 0.1 to 0.3 µM, the “EC1.5x for Smn protein expression” value [2] is reported as “*** (an EC1.5× between >0.3 μM and ≤1 μM is indicated by three stars (***))” and the “maximum fold (Fold) increase” value [2] is reported as “**** (a fold increase between >1.5 and ≤1.65 is indicated by four stars (****))”.
With `CC(C)N1CCC(c2ccc3nc(-c4ccc5nn(C)cc5c4)cc(=O)n3c2)CC1` [Compound 608, 2-(2-methyl-2H-indazol-5-yl)-7-[1-(propan-2-yl)piperidin-4-yl]-4H-pyrido[1,2-a]pyrimidin-4-one] the EC (1.5-fold increase) [1] was 0.1 to 0.3 µM, the “EC1.5x for Smn protein expression” value [2] was “** (an EC1.5× between >1 μM and ≤3 μM is indicated by two stars (**))” and the “maximum fold (Fold) increase” value [2] was “**** (a fold increase between >1.5 and ≤1.65 is indicated by four stars (****))”.
For `Cc1cn2cc(-c3cc(=O)n4cc(C5CCN(CCO)CC5)ccc4n3)cc(C)c2n1` [Compound 617, 2-(2,8-dimethylimidazo[1,2-a]pyridin-6-yl)-7-[1-(2-hydroxyethyl)piperidin-4-yl]-4H-pyrido[1,2-a]pyrimidin-4-one], the EC (1.5-fold increase) [1] was less than 0.1 µM, the “EC1.5x for Smn protein expression” value [2] was “**** (an EC1.5x≤0.3 μM is indicated by four stars (****))” and the “maximum fold (Fold) increase” value [2] was “***** (a fold increase >1.65 is indicated by five stars (*****))”.
`CCc1cc(-c2cc(=O)n3cc(N4CCN(C5CCC5)[C@@H](C)C4)ccc3n2)cn2cc(C)nc12` [Compound 652, 7-[(3S)-4-cyclobutyl-3-methylpiperazin-1-yl]-2-(8-ethyl-2-methylimidazo[1,2-a]pyridin-6-yl)-4H-pyrido[1,2-a]pyrimidin-4-one] was tested, and the EC (1.5-fold increase) [1] was less than 0.1 µM, the “EC1.5x for Smn protein expression” value [2] was “**** (an EC1.5x≤0.3 μM is indicated by four stars (****))” and the “maximum fold (Fold) increase” value [2] was “***** (a fold increase >1.65 is indicated by five stars (*****))”.
In the case of `CCc1nc(C)cn2nc(-c3cc(=O)n4cc(C5CCNCC5)ncc4n3)cc12` [Compound 653, 2-(4-ethyl-6-methylpyrazolo[1,5-a]pyrazin-2-yl)-7-(piperidin-4-yl)-4H-pyrazino[1,2-a]pyrimidin-4-one], the EC (1.5-fold increase) [1] is reported as less than 0.1 µM, the “EC1.5x for Smn protein expression” value [2] is reported as “**** (an EC1.5x≤0.3 μM is indicated by four stars (****))” and the “maximum fold (Fold) increase” value [2] is reported as “***** (a fold increase >1.65 is indicated by five stars (*****))”.
For `Cc1cn2nc(-c3cc(=O)n4cc(N5CCN(CCOCCO)[C@H](C)C5)cc(C)c4n3)cc2c(C)n1` [Compound 670, 2-(4,6-dimethylpyrazolo[1,5-a]pyrazin-2-yl)-7-{(3R)-4-[2-(2-hydroxyethoxy)ethyl]-3-methylpiperazin-1-yl}-9-methyl-4H-pyrido[1,2-a]pyrimidin-4-one], the EC (1.5-fold increase) [1] was less than 0.1 µM, the “EC1.5x for Smn protein expression” value [2] was “**** (an EC1.5x≤0.3 μM is indicated by four stars (****))” and the “maximum fold (Fold) increase” value [2] was “***** (a fold increase >1.65 is indicated by five stars (*****))”.
With `Cc1cn2nc(-c3cc(=O)n4cc(C5CCN(C)CC5)cc(C)c4n3)cc2c(C)n1` [Compound 672, 2-(4,6-dimethylpyrazolo[1,5-a]pyrazin-2-yl)-9-methyl-7-(1-methylpiperidin-4-yl)-4H-pyrido[1,2-a]pyrimidin-4-one] the EC (1.5-fold increase) [1] was less than 0.1 µM, the “EC1.5x for Smn protein expression” value [2] was “**** (an EC1.5x≤0.3 μM is indicated by four stars (****))” and the “maximum fold (Fold) increase” value [2] was “***** (a fold increase >1.65 is indicated by five stars (*****))”.

Reference: patent US11753407B2, “Compounds for treating spinal muscular atrophy” (PTC Therapeutics, Inc., priority 2012, dated 2023)
